59 molecules from patent US20140288040A1, “SUBSTITUTED BENZYLAMINE COMPOUNDS, THEIR USE IN MEDICINE, AND IN PARTICULAR THE TREATMENT OF HEPATITIS C VIRUS (HCV) INFECTION” (ASTEX THERAPEUTICS LIMITED, priority 2011, published 2014) can be followed below.

This test deals with T1, HCV NS3 protease (full length NS34a) (Hepatitis C virus genotype 1b, UniProt P26663).
T1 construct: The protease activity of the full length NS34a was measured using a FRET-based assay; made in house
As to the kind of experiment: HCV NS3 protease assay (FRET, full length NS34a). Format: biochemical. On the procedure: The HCV NS3 protease functions have been extensively studied and are considered as potential targets for antiviral therapy: see for example the many references listed in the introductory section of this application. Therefore, the activity of the compounds of the invention as anti-HCV agents was assessed using a full length HCV NS3 protease.
The protease activity of the full length NS34a was measured using a FRET-based assay utilizing a peptide substrate derived from the NS4AB cleavage site (Anaspec) and labelled at one end with a quencher (QXL520) and at the other with a fluorophore (5-FAMsp). NS34a (produced in-house by literature methods) was incubated with test compounds and peptide substrate in 50 mM Tris pH8, 20 mM DTT, 1% CHAPS, 10% glycerol and 5% DMSO. The reaction was followed by monitoring the change in fluorescence on a Molecular Devices Gemini plate reader for 30 minutes at room temperature. Initial rates were calculated from the progress curves using SoftMax Pro (Molecular Devices). IC50 values were then calculated from replicate curves using Prism GraphPad software.

Setting [1] is: protease activity of full length NS34a, FRET peptide substrate, read-out: Activity IC50.
The mark [2] stands for this setting: IC50 values of 10-150 μM against the protease activity of the full length NS34a, or at least 40% inhibition of protease activity at a concentration of 100 μM.

pIC50: −log10 of the molar value. Counter-ions that a name gives are not always drawn. Like-named read-outs stand apart in the source and are kept apart here.

T1 sequence (P26663 1658-1711): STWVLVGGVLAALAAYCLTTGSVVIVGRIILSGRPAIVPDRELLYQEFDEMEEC
T1 sequence (P26663 1027-1657): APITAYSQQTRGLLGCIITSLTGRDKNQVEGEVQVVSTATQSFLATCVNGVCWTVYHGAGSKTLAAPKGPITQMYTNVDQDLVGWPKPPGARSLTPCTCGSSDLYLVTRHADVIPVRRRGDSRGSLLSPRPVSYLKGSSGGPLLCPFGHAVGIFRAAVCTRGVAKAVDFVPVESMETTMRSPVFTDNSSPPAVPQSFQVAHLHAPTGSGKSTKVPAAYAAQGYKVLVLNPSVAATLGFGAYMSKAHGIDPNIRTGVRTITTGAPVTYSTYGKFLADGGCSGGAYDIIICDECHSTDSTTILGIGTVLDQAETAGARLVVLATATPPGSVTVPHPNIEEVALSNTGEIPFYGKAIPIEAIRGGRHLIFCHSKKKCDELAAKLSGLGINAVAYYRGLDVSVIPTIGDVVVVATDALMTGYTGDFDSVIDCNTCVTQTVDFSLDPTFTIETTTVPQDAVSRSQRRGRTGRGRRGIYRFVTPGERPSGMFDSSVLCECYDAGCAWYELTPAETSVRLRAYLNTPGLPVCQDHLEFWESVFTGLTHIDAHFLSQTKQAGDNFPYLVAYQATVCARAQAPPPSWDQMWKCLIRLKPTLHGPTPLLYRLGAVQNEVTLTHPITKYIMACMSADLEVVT

By pIC50 is commonly meant −log10 of the IC50, conventionally taken in molar units. As to `C[C@@H](CC(N)=O)NCc1ccc(Cl)c(Oc2ccccc2)c1F` [Example 328], under setting [1], the pIC50 was 5.85.

For the molecule `CC[C@@H](N[C@H](C)CC(=O)NC[C@@H](C)O)c1ccc(Cl)c(Oc2ccccc2)c1F` [Example 268], the negative-log IC50 (pIC50) under setting [2] is 3.82 to 5.00.

Consider `CC[C@@H](N)c1ccc(Cl)c(Oc2ccc(N(C)C)cc2)c1F` [Example 182], for which the pIC50 under setting [1] is 5.24.

Turning to `CCC(NCc1c[nH]c2ccccc12)c1ccc(F)c(Oc2ccccc2)c1F` (centres unmarked) [Example 31], the pIC50 under setting [1] is 5.15.

Consider `CC[C@@H](N)c1ccc(Cl)c(Oc2cc[nH]c(=O)c2)c1F` [Example 218, 4-[3-((R)-1-Amino-propyl)-6-chloro-2-fluoro-phenoxy]-1H-pyridin-2-one. hydrochloride], for which the pIC50 under setting [1] was 5.09.

Turning to `CC[C@@H](N[C@H](C)CC(N)=O)c1ccc(Cl)c(Oc2ccc(C#N)c(OC)c2)c1F` [Example 209], the pIC50 under setting [1] was 5.31.

With `CC[C@@H](N)c1ccc(Cl)c(Oc2ccc(Cl)nn2)c1F` [Example 153], under setting [2], the pIC50 was 3.82 to 5.00.

As to `CCCCC(N)c1ccc(F)c(Oc2ccccc2)c1F` (centres unmarked) [Example 10], the pIC50 under setting [1] was 5.74.

As for `NC(C1=CCCCC1)c1ccc(F)c(Oc2ccccc2)c1F` (centres unmarked) [Example 40], the pIC50 under setting [1] was 5.20.

`CC[C@@H](N[C@H](C)CC(N)=O)c1ccc(Cl)c(Oc2ccc([N+](=O)[O-])cc2)c1F` [Example 202]: under setting [1], the pIC50 was 5.27.

For the molecule `C[C@@H](N)c1ccc(Cl)c(Oc2ccccc2)c1F` [Example 341], the pIC50 under setting [2] is 3.82 to 5.00.

With `CCC(NCc1ccc2[nH]ccc2c1)c1ccc(F)c(Oc2ccccc2)c1F` (centres unmarked) [Example 35], under setting [2], the pIC50 was 3.82 to 5.00.

As to `CC[C@H](N)c1ccc(Cl)c(Oc2cccc(C(=O)N3CCCC3)c2)c1F` [Example 133, {3-[3-((S)-1-Amino-propyl)-6-chloro-2-fluoro-phenoxy]-phenyl}-pyrrolidin-1-yl-methanone.hydrochloride], the pIC50 under setting [1] is 6.15.

On to `CC[C@@H](N[C@H](C)CC(=O)NCCO)c1ccc(Cl)c(Oc2ccccc2)c1F` [Example 146], for which the pIC50 under setting [1] is 5.51.

`CC[C@@H](N[C@H](C)CC(N)=O)c1ccc(Cl)c(Oc2ccc(C#N)c(F)c2)c1F` [Example 214] gave a pIC50 under setting [2] of 3.82 to 5.00.

In the case of `CC[C@@H](N)c1ccc(Cl)c(Oc2ccc(C#N)c(F)c2)c1F` [Example 166], the pIC50 under setting [1] is 5.68.

On to `CC[C@@H](N[C@H](C)CC(N)=O)c1ccc(F)c(Oc2ccccc2)c1F` [Example 120], for which the pIC50 under setting [2] was 3.82 to 5.00.

For `CC[C@@H](N)c1ccc(Cl)c(Oc2ccc(C(C)OC)cc2)c1F` (some centres unmarked) [Example 184], under setting [1], the pIC50 was 5.21.

Consider `CC[C@H](N)c1ccc(Cl)c(Oc2cccc(C(=O)N(C)Cc3cn[nH]c3)c2)c1F` [Example 141, 3-[3-((S)-1-Amino-propyl)-6-chloro-2-fluoro-phenoxy]-N-methyl-N-(1H-pyrazol-4-ylmethyl)-benzamide.hydrochloride], for which, under setting [1], the pIC50 is 5.55.

Turning to `CC[C@@H](N)c1ccc(Cl)c(Oc2ccc(-c3cnco3)cc2)c1F` [Example 203, (R)-1-[4-Chloro-2-fluoro-3-(4-oxazol-5-yl-phenoxy)-phenyl]-propylamine.hydrochloride], the pIC50 under setting [1] was 5.80.

Take `CC[C@@H](N)c1ccc(Cl)c(Oc2ccc(/C=N/O)cc2)c1F` [Example 204, 4-[3-((R)-1-Amino-propyl)-6-chloro-2-fluoro-phenoxy]-benzaldehyde oxime.hydrochloride]: under setting [1], the pIC50 was 6.14.

As for `CS(=O)(=O)Nc1cccc(Oc2c(F)ccc(CNc3ccnc(N)c3)c2F)c1` [Example 286], under setting [1], the pIC50 is 5.52.

With `CC[C@@H](N[C@H](C)CC(N)=O)c1ccc(Cl)c(Oc2ccc(C#N)cc2)c1F` [Example 185], the pIC50 under setting [1] is 5.82.

Consider `CCC(NC(C)CC(=O)NC)c1ccc(F)c(Oc2ccccc2)c1F` (centres unmarked) [Example 48], for which the pIC50 under setting [2] is 3.82 to 5.00.

In turn, `CCc1ccc(C(N)CC2CCNCC2)c(F)c1Oc1ccccc1` (centres unmarked) [Example 105B, 1-(4-Ethyl-2-fluoro-3-phenoxy-phenyl)-2-piperidin-4-yl-ethylamine.dihydrochloride] gave a pIC50 under setting [2] of 3.82 to 5.00.

Take `CC[C@@H](N)c1ccc(Cl)c(Oc2ccc(-c3cnco3)c(C)c2)c1F` [Example 228]: the pIC50 under setting [1] was 5.80.

For `CC[C@H](N)c1ccc(Cl)c(Oc2cccc(C(=O)N(C)Cc3cnn(Cc4ccccc4)c3)c2)c1F` [Example 138, 3-[3-((S)-1-Amino-propyl)-6-chloro-2-fluoro-phenoxy]-N-(1-benzyl-1H-pyrazol-4-ylmethyl)-N-methyl-benzamide.hydrochloride], the pIC50 under setting [1] was 6.20.

Regarding `CC[C@@H](N[C@@H](C)CC(=O)N[C@@H](C)CO)c1ccc(Cl)c(Oc2ccccc2)c1F` [Example 206], under setting [2], the pIC50 is 3.82 to 5.00.

Consider `COCC[C@@H](N)c1ccc(Cl)c(Oc2ccccc2)c1F` [Example 337, (R)-1-(4-Chloro-2-fluoro-3-phenoxy-phenyl)-3-methoxy-propylamine hydrochloride], for which, under setting [1], the pIC50 was 5.12.

Consider `CC[C@@H](N)c1ccc(Cl)c(Oc2ccc(Cl)cc2)c1F` [Example 176], for which the pIC50 under setting [1] is 5.77.

For the molecule `N[C@@H](c1ccc(F)c(Oc2ccccc2)c1F)[C@@H]1CCC(=O)NC1` [Example 74B], under setting [2], the pIC50 is 3.82 to 5.00.

As for `CCC(NC(CO)CO)c1ccc(F)c(Oc2ccccc2)c1F` (centres unmarked) [Example 43], the pIC50 under setting [1] is 5.18.

For the molecule `NC(CCO)c1ccc(F)c(Oc2ccccc2)c1F` (centres unmarked) [Example 294, 3-Amino-3-(2,4-difluoro-3-phenoxy-phenyl)-propan-1-ol.hydrochloride], under setting [2], the pIC50 is 3.82 to 5.00.

For the molecule `CC[C@@H](N)c1ccc(Cl)c(Oc2cccc(C(F)(F)F)c2)c1F` [Example 162], the pIC50 under setting [1] is 5.17.

Turning to `C#Cc1ccc(Oc2c(Cl)ccc([C@@H](CC)N[C@H](C)CC(N)=O)c2F)cc1` [Example 229], the pIC50 under setting [1] is 5.77.

`C[C@@H](CC(N)=O)N[C@@H](c1ccc(Cl)c(Oc2ccccc2)c1F)C1CCOCC1` [Example 299] showed a pIC50 under setting [2] of 3.82 to 5.00.

Molecule `CCC(NCc1ccc[nH]1)c1ccc(F)c(Oc2ccccc2)c1F` (centres unmarked) [Example 291] had a pIC50 under setting [2] of 3.82 to 5.00.

Take `CC[C@@H](N)c1ccc(Cl)c(Oc2ccc(S(=O)(=O)NC)cc2)c1F` [Example 189]: the pIC50 under setting [1] is 5.07.

For `CC[C@@H](N[C@H](C)CC(=O)N(C)OC)c1ccc(Cl)c(Oc2ccccc2)c1F` [Example 160], under setting [2], the pIC50 is 3.82 to 5.00.

`CC[C@@H](N)c1ccc(Cl)c(Oc2ccncc2)c1F` [Example 169]: under setting [1], the pIC50 was 5.32.

Molecule `CCC(NC1CCCC1)c1ccc(F)c(Oc2ccccc2)c1F` (centres unmarked) [Example 30] showed a pIC50 under setting [2] of 3.82 to 5.00.

Molecule `CC[C@@H](N[C@H](C)CC(N)=O)c1ccc(Cl)c(Oc2ccc(C(N)=O)nc2)c1F` [Example 248, 5-{3-[(R)-1-((R)-2-Carbamoyl-1-methyl-ethylamino)-propyl]-6-chloro-2-fluoro-phenoxy}-pyridine-2-carboxylic acid amide.hydrochloride] gave a negative-log IC50 (pIC50) under setting [2] of 3.82 to 5.00.

In the case of `N[C@H](c1ccc(Cl)c(Oc2ccccc2)c1F)C1CCOCC1` [Example 344], the pIC50 under setting [1] is 5.82.

Take `CC[C@@H](N[C@@H](C)CC(=O)NCCO)c1ccc(Cl)c(Oc2ccccc2)c1F` [Example 147]: the pIC50 under setting [1] is 6.96.

Take `Cc1cc(Oc2c(Cl)ccc([C@@H](N)C3CCOCC3)c2F)ccc1[N+](=O)[O-]` [Example 345]: under setting [1], the pIC50 was 5.74.

In the case of `C[C@@H](CC(N)=O)N[C@H](C)c1ccc(Cl)c(Oc2ccccc2)c1F` [Example 336], the pIC50 under setting [1] is 6.00.

`CC[C@@H](N[C@@H](C)CC(N)=O)c1ccc(F)c(Oc2ccccc2)c1F` [Example 121]: the pIC50 under setting [1] is 6.68.

`CC[C@@H](N)c1ccc(Cl)c(Oc2ccc(CO)nc2)c1F` [Example 231] had a pIC50 under setting [2] of 3.82 to 5.00.

Turning to `CC[C@@H](N)c1ccc(Cl)c(Oc2ccc(NC(C)=O)nc2)c1F` [Example 355], the pIC50 under setting [2] is 3.82 to 5.00.

In turn, `CN[C@H](CCOC)c1ccc(Cl)c(Oc2ccccc2)c1F` [Example 359] showed a pIC50 under setting [2] of 3.82 to 5.00.

Regarding `CC[C@@H](N)c1ccc(Cl)c(Oc2ccc(-c3nnc(C)o3)cc2)c1F` [Example 181], the negative-log IC50 (pIC50) under setting [1] is 5.64.

`CC[C@@H](N[C@H](C)CC(=O)NOC)c1ccc(Cl)c(Oc2ccccc2)c1F` [Example 307]: the pIC50 under setting [2] is 3.82 to 5.00.

Regarding `CS(=O)(=O)Nc1cccc(Oc2c(F)ccc(CN[C@H]3CC[C@@H](N)CC3)c2F)c1` [Example 285], the pIC50 under setting [1] is 5.62.

As for `CC[C@@H](N)c1ccc(Cl)c(Oc2ccc(S(C)(=O)=O)cc2)c1F` [Example 174], the pIC50 under setting [1] was 5.21.

For the molecule `CCc1ccc(Oc2c(Cl)ccc([C@H](N)CC)c2F)cc1` [Example 187], the negative logarithm of the IC50 (pIC50) under setting [1] was 5.16.

For `CC[C@@H](N[C@H](C)CC(N)=O)c1ccc(Cl)c(Oc2ccc(-c3cnco3)cc2)c1F` [Example 220], the pIC50 under setting [1] is 5.34.

`CC[C@@H](N[C@H](C)CC(N)=O)c1ccc(Cl)c(Oc2ccc(N)c(OC)c2)c1F` [Example 254] gave a pIC50 under setting [2] of 3.82 to 5.00.

Turning to `CC[C@@H](N)c1ccc(Cl)c(Oc2cccc(C#N)c2)c1F` [Example 199], the pIC50 under setting [1] is 5.42.

Molecule `NC(CC(=O)Nc1ccncc1)c1ccc(F)c(Oc2ccccc2)c1F` (centres unmarked) [Example 20, 3-Amino-3-(2,4-difluoro-3-phenoxy-phenyl)-N-pyridin-4-yl-propionamide. dihydrochloride] showed a pIC50 under setting [2] of 3.82 to 5.00.
